From patent publication US8912121B2, “Herbicidal compositions comprising 4-amino-3-chloro-5-fluoro-6-(4-chloro-2-fluoro-3-methoxyphenyl)pyridine-2-carboxylic acid or a derivative thereof and certain PS II inhibitors” (Dow Agrosciences LLC, priority 2012, dated 2014)

How the values were obtained:
[1] = system: SETVI (Setaria viridis, green foxtail); assay: Pre-emergence soil-applied mixtures, greenhouse; type: in vivo, Setaria viridis (L.) Beauv.
Description: Seeds or nutlets of the desired test plant species were planted in a soil matrix prepared by mixing a loam soil (32 percent silt, 23 percent clay, and 45 percent sand, with a pH of about 6.5 and an organic matter content of about 1.9 percent) and calcareous grit in an 80 to 20 ratio. The soil matrix was contained in plastic pots with a volume of 1 quart and a surface area of 83.6 square centimeters (cm^2).
Treatments consisted of the benzyl ester of 4-amino-3-chloro-5-fluoro-6-(4-chloro-2-fluoro-3-methoxy-phenyl)pyridine-2-carboxylic acid (compound A) formulated as an SC (suspension concentrate) and various herbicidal components alone and in combination. Forms of compound A were applied on an acid equivalent basis.
Other herbicidal components were applied on an acid equivalent or active ingredient basis and included the PSII-inhibiting herbicides, atrazine formulated as Atrazine® 90WDG, metribuzin formulated as Metribuzin 75DF, simazine formulated as Princep Caliber 90, tebuthiuron formulated as Spike 80DF, cyanazine (technical grade material), hexazinone (technical grade material), linuron (technical grade material), terbuthylazine (technical grade material), and diuron formulated as Diuron 4L.
Treatment requirements were calculated based upon the rates being tested, the concentration of active ingredient or acid equivalent in the formulation, and a 12 mL application volume at a rate of 187 L/ha.
For treatments comprised of formulated compounds, measured amounts of compounds were placed individually in 25 mL glass vials and diluted in a volume of 1.25% (v/v) Agri-Dex® crop oil concentrate (COC) to obtain 12× stock solutions. […]
For treatments comprised of formulated and technical compounds, weighed amounts of the technical materials can be placed individually in 25 mL glass vials and dissolved in a volume of 97:3 (v/v) acetone/DMSO to obtain 12× stock solutions, and measured amounts of the formulated compounds can be placed individually in 25 mL glass vials and diluted in a volume of 1.5% (v/v) COC or water to obtain 12× stock solutions. […]

[2] = system: KCHSC (Kochia scoparia, kochia); assay: Postemergence herbicidal activity of mixtures in cereal crops, greenhouse; type: in vivo, Kochia scoparia (L.) Schrad.
Experimental: Seeds of the desired test plant species were planted in Sun Gro MetroMix® 306 planting mixture, which typically has a pH of 6.0 to 6.8 and an organic matter content of about 30 percent, in plastic pots with a surface area of 103.2 square centimeters (cm^2). When required to ensure good germination and healthy plants, a fungicide treatment and/or other chemical or physical treatment was applied. The plants were grown for 7-36 days in a greenhouse with an approximate 14 hour photoperiod which was maintained at about 18° C. during the day and about 17° C. during the night. Nutrients and water were added on a regular basis and supplemental lighting was provided with overhead metal halide 1000-Watt lamps as necessary. The plants were employed for testing when they reached the second or third true leaf stage.
Treatments consisted of the benzyl ester of 4-amino-3-chloro-5-fluoro-6-(4-chloro-2-fluoro-3-methoxy-phenyl)pyridine-2-carboxylic acid (Compound A), formulated as an SC, a second cereal herbicide alone and then both in combination.
Other herbicidal components were applied on an active ingredient basis and included PSII-inhibiting herbicides.
Measured aliquots of benzyl ester of 4-amino-3-chloro-5-fluoro-6-(4-chloro-2-fluoro-3-methoxy-phenyl)pyridine-2-carboxylic acid (Compound A) were placed in 25 milliliter (mL) glass vials and diluted in a volume of 1.25% (v/v) Agri-Dex® crop oil concentrate to obtain stock solutions. Compound requirements are based upon a 12 mL application volume at a rate of 187 liters per hectare (L/ha). Spray solutions of the second cereal herbicide and experimental compound mixtures were prepared by adding the stock solutions to the appropriate amount of dilution solution to form 12 mL spray solution with active ingredients in two- and three-way combinations. Formulated compounds were applied to the plant material with an overhead Mandel track sprayer equipped with an 8002E nozzle calibrated to deliver 187 L/ha over an application area of 0.503 square meters (m^2) at a spray height of 18 inches (46 cm) above average plant canopy. Control plants were sprayed in the same manner with the solvent blank.
The treated plants and control plants were placed in a greenhouse as described above and watered by sub-irrigation to prevent wash-off of the test compounds. After 20-22 days, the condition of the test plants as compared with that of the control plants was determined visually and scored on a scale of 0 to 100 percent where 0 corresponds to no injury and 100 corresponds to complete kill.
Colby's equation was used to determine the herbicidal effects expected from the mixtures (Colby, S. R. 1967. Calculation of the synergistic and antagonistic response of herbicide combinations. Weeds 15:20-22).
The following equation was used to calculate the expected activity of mixtures containing two active ingredients, A and B: Expected=A+B−(A×B/100)

## COc1c(Cl)ccc(-c2nc(C(=O)OCc3ccccc3)c(Cl)c(N)c2F)c1F [Compound A Benzyl Ester, benzyl ester of 4-amino-3-chloro-5-fluoro-6-(4-chloro-2-fluoro-3-methoxy-phenyl)pyridine-2-carboxylic acid]
[1]; Compound A Benzyl Ester 16 g ae/ha
  Visual Weed Control (%)-29 DAA SETVI Obs: 10%
[1]; Compound A Benzyl Ester 32 g ae/ha
  Visual Weed Control (%)-29 DAA SETVI Obs: 10%
[2]; Compound A Benzyl Ester 2.5 g ai/ha
  Visual Weed Control (%)-21 DAA KCHSC Obs: 20%
[2]; Compound A Benzyl Ester 5 g ai/ha
  Visual Weed Control (%)-21 DAA KCHSC Obs: 41%
[2]; Compound A Benzyl Ester 10 g ai/ha
  Visual Weed Control (%)-21 DAA KCHSC Obs: 62%
